One compound from patent US20240201173A1, “Enamel Repair Visualization and Quantification” (Colgate-Palmolive Company, priority 2022, published 2024) can be followed below.

Assay [1] can be described thus: Knoop microhardness repair of acid-etched bovine enamel blocks after treatment and remineralization. Conditions: 1% citric acid etch 10 min, 40 microliters for ten minutes at room temperature, Remineralization Solution overnight at 37° C. How it is done:
Bovine enamel blocks are obtained from sound bovine incisors without defects. The labial surface of the bovine teeth is cut to provide enamel specimens of about 3×3×2 mm in size. The enamel layer is about 1 mm thick and the dentin left in the specimen is about 1 mm thick.
Etched enamel samples are prepared by treatment with 1% aqueous citric acid (pH 3.6) for 10 minutes, followed by rinsing with deionized water. Three bovine enamel blocks are prepared, one for the test solution, one for a positive control solution, and one for a negative control solution.
Etched bovine enamel samples are treated with 40 microliters of the polyelectrolyte solution A, with sodium fluoride solution, or with water, for ten minutes at room temperature. […]
Knoop Hardness (KHN) is a measure of hardness of a material calculated by measuring the indentation produced by a diamond tip that is pressed onto the surface of a sample. Using a calibrated microscope, the area of the impression can be determined, and from the area of the indentation (D) in […], and the applied load (F) in kilograms force, the Knoop Hardness is calculated as: KHN=14.229(F/D^2). […]
KHN is determined using Knoop microhardness tester. […] A value for Percentage of Hardness Repair (% HR) is calculated according to the following formula: […]

Assay [2] in a line: Single-block enamel repair evaluation, solution samples (Keyence microscope step height, light microscopy, SEM). Details: species or system bovine. How it is done:
The left half of the block (“sound”) is covered using an acid-resistant nail polish, which is then allowed to air dry. The right half of the block (“damaged” and “repaired”) is then treated with 1% citric acid (pH 3.6) for ten minutes to etch the surface. After the treatment, the surface of the block is rinsed with deionized water. The top right corner of the block (“damaged”) is then covered with the same acid-resistant nail polish and air dried. The test formulation is then applied to the bottom right corner of the block (“repaired”), for example, for a ten-minute treatment, followed by rinsing with deionized water. Following the treatment, the enamel blocks are immersed in a Remineralization Solution (0.2205 g/L CaCl2·2H2O, 0.1225 g/L KH2PO4, 9.6915 g/L KCl and 4.766 g/L HEPEs buffer, pH adjusted to 7 with NaOH) overnight at 37° C., and the process repeated for 2-4 days (the blocks immersed daily in fresh remineralization solution). Following this, the blocks are removed, rinsed with deionized water and air dried. The nail polish covers are then removed using acetone solvent, and the surface of the enamel blocks is visualized, for example, by light microscopy, confocal laser scanning microscopy, scanning probe microscopy, or scanning electron microscopy.
A Keyence microscope is used to capture the surface morphology and to measure the step height of the treated samples. A Phenom ProX Desktop scanning electron microscope is used to observe the repaired enamel crystals. Bovine enable blocks are treated with either water, the sodium fluoride solution, or the 10 mg/mL ePL+0.06 mg/mL malic acid solution (Solution A above).

Turning to `[F-].[Na+]` [NaF Control, sodium fluoride], the results for the “% HR (Percentage of Hardness Repair)” value in assay [1] and in assay [1] (listed as sodium fluoride) were 41.0% and “did not reach half of original hardness levels”, respectively. For the same compound, the “% Repair (Step height)” value in assay [2] (1% citric acid etch 10 min, ten-minute treatment, remineralization repeated 2-4 days) was determined as 65.3%. Moreover, in assay [2] (gaps from acid etching), the “enamel surface gaps, scanning electron microscopy” value is reported as “some healing”. For the same compound, the “surface elevation, 3-D Keyence photomicrographs (FIG. 3)” value in assay [2] (height vs sound enamel side) was “do not restore the enamel to the original height”. Further, the “surface morphology of repaired side, light microscopy (FIG. 2)” value in assay [2] (repaired vs damaged side of same block) is “a clear interface between “damaged” and “repaired” sides is observed”.
